Measurements taken from patent publication US11279681B2, “3-alkyl bicyclic [4,5,0] hydroxamic acids as HDAC inhibitors” (Valo Health, Inc., priority 2015, dated 2022).

What follows are compounds tested against T1, HDAC6 (Homo sapiens, UniProt Q9UBN7) (assay: In vitro histone deacetylase assay: enzymatic HDAC6 electrophoretic mobility shift assay). Conditions: full length human recombinant HDAC6, 1 nM enzyme, 2 μM peptide substrate RHKK(Ac)-NH2, 25° C.; read-out: Inhibitory Concentration (IC50) Values for Representative Compounds against HDAC6, Activity Range.
T1 sequence (Q9UBN7 1-1215): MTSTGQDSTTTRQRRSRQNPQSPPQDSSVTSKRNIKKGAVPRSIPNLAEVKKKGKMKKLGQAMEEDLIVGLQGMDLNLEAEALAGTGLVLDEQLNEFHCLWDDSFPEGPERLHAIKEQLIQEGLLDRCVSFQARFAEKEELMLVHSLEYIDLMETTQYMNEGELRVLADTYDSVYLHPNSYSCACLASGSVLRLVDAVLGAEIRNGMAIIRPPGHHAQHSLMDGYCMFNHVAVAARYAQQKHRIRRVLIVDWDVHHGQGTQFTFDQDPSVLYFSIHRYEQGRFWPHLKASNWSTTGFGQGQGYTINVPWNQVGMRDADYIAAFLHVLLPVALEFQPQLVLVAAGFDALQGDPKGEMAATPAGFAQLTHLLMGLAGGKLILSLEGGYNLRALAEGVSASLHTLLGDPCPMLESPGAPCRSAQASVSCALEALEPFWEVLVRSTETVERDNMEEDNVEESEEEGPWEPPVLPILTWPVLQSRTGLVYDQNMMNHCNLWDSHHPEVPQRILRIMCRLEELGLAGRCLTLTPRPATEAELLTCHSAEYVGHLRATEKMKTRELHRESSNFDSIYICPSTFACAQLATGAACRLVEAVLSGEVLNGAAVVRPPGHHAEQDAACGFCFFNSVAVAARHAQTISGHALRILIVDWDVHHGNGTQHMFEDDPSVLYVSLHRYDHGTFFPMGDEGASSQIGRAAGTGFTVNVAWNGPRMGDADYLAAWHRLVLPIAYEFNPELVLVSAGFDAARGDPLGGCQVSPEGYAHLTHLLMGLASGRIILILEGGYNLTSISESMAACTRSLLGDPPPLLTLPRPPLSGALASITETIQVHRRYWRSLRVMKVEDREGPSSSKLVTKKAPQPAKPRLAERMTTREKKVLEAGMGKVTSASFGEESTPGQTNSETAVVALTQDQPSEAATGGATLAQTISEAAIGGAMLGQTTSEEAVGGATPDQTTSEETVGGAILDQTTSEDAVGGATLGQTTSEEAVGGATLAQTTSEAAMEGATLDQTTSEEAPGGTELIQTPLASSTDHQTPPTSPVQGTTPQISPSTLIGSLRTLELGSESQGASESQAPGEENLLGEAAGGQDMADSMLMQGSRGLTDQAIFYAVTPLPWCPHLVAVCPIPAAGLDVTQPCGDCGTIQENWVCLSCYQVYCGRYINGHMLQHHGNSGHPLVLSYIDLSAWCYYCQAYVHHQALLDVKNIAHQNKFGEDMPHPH
Format: biochemical

| IC50 [nM] | Compound |
| --- | --- |
| ≤ 100 | C[C@H]1COc2cc(C(=O)NO)ccc2CN1C(=O)NC1CCCCC1 [(S)-N4-cyclohexyl-N8-hydroxy-3-methyl-2,3-dihydrobenzo[f][1,4]oxazepine-4,8(5H)-dicarboxamide] |
| 100 to 500 | COC[C@@H]1CN(C(=O)Nc2ccc(OC)cc2)Cc2ccc(C(=O)NO)cc2O1 [(S)-N8-hydroxy-2-(methoxymethyl)-N4-(4-methoxyphenyl)-2,3-dihydrobenzo[f][1,4]oxazepine-4,8(5H)-dicarboxamide] |
| ≤ 100 | C[C@H]1COc2cc(C(=O)NO)ccc2CN1C(=O)Nc1ccccn1 [(S)-N8-hydroxy-3-methyl-N4-(pyridin-2-yl)-2,3-dihydrobenzo[f][1,4]oxazepine-4,8(5H)-dicarboxamide] |
| ≤ 100 | C[C@H]1COc2cc(C(=O)NO)ccc2CN1C(=O)Nc1cccnc1 [(S)-N8-hydroxy-3-methyl-N4-(pyridin-3-yl)-2,3-dihydrobenzo[f][1,4]oxazepine-4,8(5H)-dicarboxamide] |
| ≤ 100 | C[C@H]1COc2cc(C(=O)NO)ccc2CN1C(=O)Nc1ccncc1 [(S)-N8-hydroxy-3-methyl-N4-(pyridin-4-yl)-2,3-dihydrobenzo[f][1,4]oxazepine-4,8(5H)-dicarboxamide] |
| ≤ 100 | C[C@H]1COc2cc(C(=O)NO)ccc2CN1C(=O)NC1CCOCC1 [(S)-N8-hydroxy-3-methyl-N4-(tetrahydro-2H-pyran-4-yl)-2,3-dihydrobenzo[f][1,4]oxazepine-4,8(5H)-dicarboxamide] |
| ≤ 100 | C[C@H]1COc2cc(C(=O)NO)ccc2CN1C(=O)Nc1ccccc1 [(S)-N8-hydroxy-3-methyl-N4-phenyl-2,3-dihydrobenzo[f][1,4]oxazepine-4,8(5H)-dicarboxamide] |
| ≤ 100 | C[C@H]1COc2cc(C(=O)NO)ccc2CN1C(=O)N(C)C1CCOCC1 [(S)-N8-hydroxy-N4,3-dimethyl-N4-(tetrahydro-2H-pyran-4-yl)-2,3-dihydrobenzo[f][1,4]oxazepine-4,8(5H)-dicarboxamide] |
| 100 to 500 | C[C@H]1COc2cc(C(=O)NO)ccc2CN1C(=O)N(C)c1ccccc1 [(S)-N8-hydroxy-N4,3-dimethyl-N4-phenyl-2,3-dihydrobenzo[f][1,4]oxazepine-4,8(5H)-dicarboxamide] |
| ≤ 100 | C[C@H]1COc2cc(C(=O)NO)ccc2CN1C(=O)N(C)C [(S)-N8-hydroxy-N4,N4,3-trimethyl-2,3-dihydrobenzo[f][1,4]oxazepine-4,8(5H)-dicarboxamide] |
| ≤ 100 | COCCNC(=O)N1Cc2ccc(C(=O)NO)cc2OC[C@@H]1C [(S)-N8-hydroxy-N4-(2-methoxyethyl)-3-methyl-2,3-dihydrobenzo[f][1,4]oxazepine-4,8(5H)-dicarboxamide] |
| ≤ 100 | COc1ccc(NC(=O)N2Cc3ccc(C(=O)NO)cc3O[C@@H](c3ccccc3)C2)cc1 [(S)-N8-hydroxy-N4-(4-methoxyphenyl)-2-phenyl-2,3-dihydrobenzo[f][1,4]oxazepine-4,8(5H)-dicarboxamide] |
| ≤ 100 | COC[C@H]1COc2cc(C(=O)NO)ccc2CN1c1ccccc1C [(S)-N-hydroxy-3-(methoxymethyl)-4-(o-tolyl)-2,3,4,5-tetrahydrobenzo[f][1,4]oxazepine-8-carboxamide] |
| ≤ 100 | COC[C@H]1COc2cc(C(=O)NO)ccc2CN1C [(S)-N-hydroxy-3-(methoxymethyl)-4-methyl-2,3,4,5-tetrahydrobenzo[f][1,4]oxazepine-8-carboxamide] |
| ≤ 100 | COC[C@H]1COc2cc(C(=O)NO)ccc2CN1c1ccccc1 [(S)-N-hydroxy-3-(methoxymethyl)-4-phenyl-2,3,4,5-tetrahydrobenzo[f][1,4]oxazepine-8-carboxamide] |
| ≤ 100 | CC(C)[C@H]1COc2cc(C(=O)NO)ccc2CN1c1ccccn1 [(S)-N-hydroxy-3-isopropyl-4-(pyridin-2-yl)-2,3,4,5-tetrahydrobenzo[f][1,4]oxazepine-8-carboxamide] |
| ≤ 100 | CC(C)[C@H]1COc2cc(C(=O)NO)ccc2CN1c1cccnc1 [(S)-N-hydroxy-3-isopropyl-4-(pyridin-3-yl)-2,3,4,5-tetrahydrobenzo[f][1,4]oxazepine-8-carboxamide] |
